{"source": "patent US20230119806A1", "about": "“ANTIGEN SPECIFIC EPITOPE BASED ANTI-INFECTIVE VACCINES” (VAXIL BIOTHERAPEUTICS LTD., priority 2020, published 2023)", "key": {"[1]": {"system": "splenocytes of immunized BALB/c mice", "assay": "ELISpot of interferon gamma after SP stimulation of splenocytes", "assay_type": "cell-based", "method": "(§1) BALB/c and C57BL/6 mice were immunized by subcutaneous (SC) injections with 100 μg of individual SPs or a SP mixture and with intraperitoneal injections of 100 ng of mouse granulocyte macrophage colony stimulating factor (mGM-CSF) three times at 7-day intervals."}, "[2]": {"system": "Peripheral blood mononuclear cells (PBMCs) from healthy donors", "assay": "Ex vivo immunogenicity: proliferation of PBMCs stimulated by SP-loaded autologous dendritic cells", "assay_type": "cell-based", "details": "healthy donor PBMCs; for proliferation in CD4+ and CD8+ T cells / proliferation versus positive control SPs: SP-loaded autologous DCs", "method": "Immunogenicity is assessed by quantifying proliferation of T cells in response to exposure to peptides. To this end, healthy donor peripheral blood mononuclear cells (PBMCs) are marked by a fluorescent dye and exposed to either the naked peptide or to autologous antigen presenting cells (APCs) pre-loaded with the SP. Phytohaemagglutinin (PHA), or tetanus toxoid, (TT), or previously tested SPs, serve as a positive control for maximum stimulation. Unloaded APCs, or medium, or human Fab fragments serve as negative controls. Proliferation is calculated by the increase of CD3+ T cells and the fraction of cells with different number of cell divisions assessed by flow cytometry.\nPeripheral blood mononuclear cells (PBMCs) from healthy donors were stimulated by SP-loaded autologous dendritic cells (DCs)."}, "[3]": {"system": "splenocytes of immunized C57BL/6 mice", "assay": "ELISpot of interleukin 2 after SP stimulation of splenocytes", "assay_type": "cell-based", "details": "SP stimulation of splenocytes of immunized C57BL/6 mice", "method": "as §1"}, "BALB/c and C57BL/6 mice": {"system": "BALB/c and C57BL/6 mice", "assay": "ELISA of sera of mice immunized with signal peptides (antibody response)", "assay_type": "in vivo", "details": "for antibody response against VXL-301 (ELISA): VXL-301 coated plate; for antibody responses of immunized mice (ELISA, overall): summary of BALB/c and C57BL/6 ELISA results; for antibody response against VXL-303 (ELISA): VXL-303 coated plate", "method": "as §1\nTo monitor if antibody response was developed against the SPs an enzyme-linked immunosorbent assay (ELISA) was performed with sera obtained on days 10 and 20 post the last immunization when VXL-301, or VXL-302, or VXL-303 or VXL-201c (negative control) were coated on the ELISA plate."}, "[4]": {"details": "BALB/c mice, sera day 10 post last immunization, 100 μg SC + mGM-CSF, three times"}, "[5]": {"details": "C57BL/6 mice, sera day 20 post last immunization"}}, "data": [{"sequence": "MKIILFLALITLATC [VXL-302, signal peptide of SARS-CoV-2 ORF7a]", "values": [{"measurement": "secretion of interferon gamma (ELISpot)", "setting": "[1]", "value": "induced secretion of interferon gamma primarily in the VXL-302 immunized group"}, {"measurement": "proliferation versus unloaded DCs (non-specific proliferation)", "setting": "[2]", "value": "proliferation that was greater than unloaded DCs"}, {"measurement": "proliferation in CD4+ and CD8+ T cells", "setting": "[2]", "value": "evident in both CD4+ cytotoxic T cells and CD8+ helper T cells"}, {"measurement": "proliferation versus positive control SPs", "setting": "[2]", "value": "comparable to the levels observed for positive control SPs"}, {"measurement": "secretion of interleukin 2 (ELISpot)", "setting": "[3]", "value": "induced secretion of interleukin 2 primarily in the VXL-302-immunized group"}]}, {"sequence": "MFVFLVLLPLVSSQC [VXL-301]", "values": [{"measurement": "secretion of interferon gamma (ELISpot)", "setting": "[1]", "value": "induced secretion of interferon gamma primarily in the VXL-301- and the SP mixture-immunized groups"}, {"measurement": "proliferation versus unloaded DCs (non-specific proliferation)", "setting": "[2]", "value": "proliferation that was greater than unloaded DCs"}, {"measurement": "proliferation in CD4+ and CD8+ T cells", "setting": "[2]", "value": "evident in both CD4+ cytotoxic T cells and CD8+ helper T cells"}, {"measurement": "proliferation versus positive control SPs", "setting": "[2]", "value": "comparable to the levels observed for positive control SPs"}, {"measurement": "antibody response against VXL-301 (ELISA)", "setting": "BALB/c and C57BL/6 mice; [4]", "value": "greatest antibody response"}, {"measurement": "antibody response against VXL-301 (ELISA)", "setting": "BALB/c and C57BL/6 mice; [5]", "value": "highest antibody responses"}, {"measurement": "antibody responses of immunized mice (ELISA, overall)", "setting": "BALB/c and C57BL/6 mice", "value": "demonstrated antibody responses"}, {"measurement": "secretion of interleukin 2 (ELISpot)", "setting": "[3]", "value": "induced secretion of interleukin 2 primarily in the VXL-301- and the SP mixture-immunized groups"}]}, {"sequence": "MKFLVFLGIITTVAA [VXL-303]", "values": [{"measurement": "secretion of interferon gamma (ELISpot)", "setting": "[1]", "value": "induced secretion of interferon gamma primarily in the VXL-303- and the SP mixture-immunized groups"}, {"measurement": "proliferation versus unloaded DCs (non-specific proliferation)", "setting": "[2]", "value": "proliferation that was greater than unloaded DCs"}, {"measurement": "proliferation in CD4+ and CD8+ T cells", "setting": "[2]", "value": "evident in both CD4+ cytotoxic T cells and CD8+ helper T cells"}, {"measurement": "proliferation versus positive control SPs", "setting": "[2]", "value": "comparable to the levels observed for positive control SPs"}, {"measurement": "antibody response against VXL-303 (ELISA)", "setting": "BALB/c and C57BL/6 mice; [4]", "value": "greatest antibody response"}, {"measurement": "antibody response against VXL-303 (ELISA)", "setting": "BALB/c and C57BL/6 mice; [5]", "value": "highest antibody responses"}, {"measurement": "antibody responses of immunized mice (ELISA, overall)", "setting": "BALB/c and C57BL/6 mice", "value": "demonstrated antibody responses"}, {"measurement": "secretion of interleukin 2 (ELISpot)", "setting": "[3]", "value": "induced secretion of interleukin 2 primarily in the VXL-303- and the SP mixture-immunized groups"}]}]}
